From US20250090510A1, “eIF4G1-eIF1 INHIBITORS AND USE THEREOF” (YEDA RESEARCH AND DEVELOPMENT CO. LTD., priority 2022, published 2025)

Experiments:
[1] = target: T1, eIF1-eIF4G1 complex (Homo sapiens, UniProt Q04637); test: Co-immunoprecipitation of endogenous eIF4G1 with HA-eIF1; assay type: cell-based; details: HEK293T; i14G1-10 20 μM, i14G1-12 10 μM; 4 h
T1 construct: co-immunoprecipitation of endogenous eIF4G1 in HEK293T cells expressing HA-eIF1 or HA-eIF4E was performed; endogenous in cells; host or cells: HEK293T (eIF4G1 endogenous; HA-eIF1 transfected)
Experimental: FIGS. 2A-C: The effect of i14G1-10 and i14G1-12 on eIF1-eIF4G1 and eIF4E-eIF4G1 complexes. (2A-B) HA-eIF1 and HA-eIF4E were each transfected into HEK293T cells and 48 h after transfection cells were treated with DMSO or i14G1-10 (2A) or i14G1-12 (2B) for 4 h, followed by immunoprecipitation of HA-eIF1 or HA-eIF4E using anti-HA-agarose beads. Western blot was run to check co-immunoprecipitation of endogenous eIF4G1 with HA-eIF1 or HA-eIF4E. The graphs represent the co-immunoprecipitation of eIF4G1 with HA-eIF1 (right) or HA-eIF4E (left). Co—IP data shown as mean±SEM of 4-7 independent experiments. The asterisks denote statistically significant difference compared to DMSO, according to Student's t-tests (one-tailed, paired). *p<0.05. (2C) HEK293T cells were treated with DMSO, i14G1-10, or i14G1-12 for 4 h, followed by cell lysis. Respective cell lysates were incubated with cap analog (γ-Aminohexyl-m7GTP) beads for 2 h to precipitate bound eIF4E. Western blot was performed to check co-precipitation of eIF4G1 along with eIF4E on the cap-analog beads. The graph represents the binding fraction of eIF4G1 and eIF4E to the cap-analog beads (mean±SEM) with DMSO (black), i14G1-10 (blue), and i14G1-12 (red), n=6. The asterisks denote statistically significant difference compared to DMSO, according to Student's t-tests (one-tailed, paired). *p<0.05; **p<0.01.
Co-immunoprecipitation. HEK293T cells were transfected with 5 μg of HA-eIF1 or HA-eIF4E plasmids along with 10 ng GFP plasmid to check for transfection efficiency using Jetprime reagent as per manufacturer's protocol. After 48 h, HA-eIF1 and HA-eIF4E expressing HEK293T cells were incubated with DMSO, i14G1-10 (20 μM), and […] (10 μM). 4 h later, cells were lysed using IP buffer (20 mM Tris pH8, 125 mM NaCl, 10% glycerol, 50 mM NaF, 1 mM […], 0.5% NP-40, and 0.2 mM EDTA) supplemented with fresh protease inhibitor cocktail (1:100) and PMSF 200 μM (1:100). Protein extract was taken for immunoprecipitation using either monoclonal anti-HA-agarose antibody (Sigma) or control IgG antibody in IP buffer, at 4° C. for 2 hours. […]

[2] = target: rabbit reticulocyte lysate; test: In-vitro translation of capped firefly luciferase mRNA; assay type: biochemical; details: 10 minutes pre-incubation, 90 minutes at 30° C.

T1 sequence (Q04637 whole entry, one chain of several): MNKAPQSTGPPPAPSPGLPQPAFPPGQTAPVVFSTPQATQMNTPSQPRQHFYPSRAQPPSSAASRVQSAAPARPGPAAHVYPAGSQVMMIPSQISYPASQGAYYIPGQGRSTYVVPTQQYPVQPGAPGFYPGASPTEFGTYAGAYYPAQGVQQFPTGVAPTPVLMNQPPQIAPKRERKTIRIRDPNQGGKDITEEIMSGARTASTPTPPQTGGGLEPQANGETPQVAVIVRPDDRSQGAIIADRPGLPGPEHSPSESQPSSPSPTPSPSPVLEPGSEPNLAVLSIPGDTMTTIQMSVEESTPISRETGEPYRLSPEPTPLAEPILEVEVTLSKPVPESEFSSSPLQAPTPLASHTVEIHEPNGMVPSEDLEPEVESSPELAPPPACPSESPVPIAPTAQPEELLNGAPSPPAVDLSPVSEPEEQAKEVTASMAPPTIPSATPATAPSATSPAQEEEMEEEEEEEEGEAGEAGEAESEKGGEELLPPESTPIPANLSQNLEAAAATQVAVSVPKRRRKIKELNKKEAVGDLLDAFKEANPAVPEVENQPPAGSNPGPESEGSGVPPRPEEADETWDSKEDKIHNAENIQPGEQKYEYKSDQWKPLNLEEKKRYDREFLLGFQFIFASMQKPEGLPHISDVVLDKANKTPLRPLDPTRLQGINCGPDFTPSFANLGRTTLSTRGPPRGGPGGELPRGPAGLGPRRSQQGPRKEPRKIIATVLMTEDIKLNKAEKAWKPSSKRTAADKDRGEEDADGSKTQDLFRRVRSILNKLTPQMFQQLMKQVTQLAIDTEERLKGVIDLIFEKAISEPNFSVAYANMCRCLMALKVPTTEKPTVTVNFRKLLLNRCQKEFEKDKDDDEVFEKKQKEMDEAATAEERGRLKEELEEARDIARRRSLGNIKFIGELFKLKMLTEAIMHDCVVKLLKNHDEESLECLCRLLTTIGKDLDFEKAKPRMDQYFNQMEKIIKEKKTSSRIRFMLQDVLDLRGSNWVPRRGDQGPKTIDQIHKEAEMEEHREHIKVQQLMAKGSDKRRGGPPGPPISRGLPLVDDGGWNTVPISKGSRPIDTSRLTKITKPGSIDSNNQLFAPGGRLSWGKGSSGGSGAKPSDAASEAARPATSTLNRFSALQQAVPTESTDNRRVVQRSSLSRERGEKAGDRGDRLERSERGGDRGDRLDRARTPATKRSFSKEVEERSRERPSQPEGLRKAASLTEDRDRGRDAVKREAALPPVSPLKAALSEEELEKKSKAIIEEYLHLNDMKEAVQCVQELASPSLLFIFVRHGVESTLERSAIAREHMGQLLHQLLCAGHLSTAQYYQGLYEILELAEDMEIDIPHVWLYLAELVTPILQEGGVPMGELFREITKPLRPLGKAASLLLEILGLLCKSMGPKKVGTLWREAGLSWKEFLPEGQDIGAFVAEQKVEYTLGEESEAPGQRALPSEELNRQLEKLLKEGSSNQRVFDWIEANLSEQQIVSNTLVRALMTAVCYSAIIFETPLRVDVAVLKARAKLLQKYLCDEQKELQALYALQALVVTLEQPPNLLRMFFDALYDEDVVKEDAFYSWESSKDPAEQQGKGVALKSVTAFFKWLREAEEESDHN

Row | Structure (SMILES) | reduction in eIF4G1 binding to HA-eIF1 [1] [%] | IC50 [2] [µM]
1 | O=C(/C=C/Sc1ccc(C(F)(F)F)cn1)c1ccccc1 [i14G1-10] | 50 | 5.44
2 | Cn1ccnc1S/C(=C/C=C(C#N)C#N)c1ccc(Cl)cc1 [i14G1-12] | 25 | 4.14
